Results as given in patent US9637483B2, “Heterocyclic compound” (TAKEDA PHARMACEUTICAL COMPANY LIMITED, priority 2013, dated 2017).

Tests used:
Type in all cases: biochemical
JAK2 = biological target: T1, JAK2 (Homo sapiens, UniProt O60674); experiment: JAK2 enzyme inhibition test (LANCE method); conditions: 1 μM test compound; read-out: JAK2 enzyme inhibitory activity (%, 1 μM)
T1 construct: purchased Invitrogen
How it was run: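 TR-FRET (LANCE) read-out, ex 340/em 665 nm with 100 μs delay, after 1 hr room-temperature detection with europium anti-phosphotyrosine antibody and 20 mM EDTA. The preceding 1 hr kinase reaction combined JAK2, ULight-JAK1 substrate and ATP, added as 6 ng/mL, 300 nM and 45 μM solutions; enzyme-free wells defined 100% inhibition.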

JAK3 = biological target: T2, JAK3 (Homo sapiens, UniProt P52333); experiment: JAK3 enzyme inhibition test (LANCE method); conditions: 1 μM test compound; read-out: JAK3 enzyme inhibitory activity (%, 1 μM)
T2 construct: purchased Invitrogen
T2 sequence (P52333 1-1124): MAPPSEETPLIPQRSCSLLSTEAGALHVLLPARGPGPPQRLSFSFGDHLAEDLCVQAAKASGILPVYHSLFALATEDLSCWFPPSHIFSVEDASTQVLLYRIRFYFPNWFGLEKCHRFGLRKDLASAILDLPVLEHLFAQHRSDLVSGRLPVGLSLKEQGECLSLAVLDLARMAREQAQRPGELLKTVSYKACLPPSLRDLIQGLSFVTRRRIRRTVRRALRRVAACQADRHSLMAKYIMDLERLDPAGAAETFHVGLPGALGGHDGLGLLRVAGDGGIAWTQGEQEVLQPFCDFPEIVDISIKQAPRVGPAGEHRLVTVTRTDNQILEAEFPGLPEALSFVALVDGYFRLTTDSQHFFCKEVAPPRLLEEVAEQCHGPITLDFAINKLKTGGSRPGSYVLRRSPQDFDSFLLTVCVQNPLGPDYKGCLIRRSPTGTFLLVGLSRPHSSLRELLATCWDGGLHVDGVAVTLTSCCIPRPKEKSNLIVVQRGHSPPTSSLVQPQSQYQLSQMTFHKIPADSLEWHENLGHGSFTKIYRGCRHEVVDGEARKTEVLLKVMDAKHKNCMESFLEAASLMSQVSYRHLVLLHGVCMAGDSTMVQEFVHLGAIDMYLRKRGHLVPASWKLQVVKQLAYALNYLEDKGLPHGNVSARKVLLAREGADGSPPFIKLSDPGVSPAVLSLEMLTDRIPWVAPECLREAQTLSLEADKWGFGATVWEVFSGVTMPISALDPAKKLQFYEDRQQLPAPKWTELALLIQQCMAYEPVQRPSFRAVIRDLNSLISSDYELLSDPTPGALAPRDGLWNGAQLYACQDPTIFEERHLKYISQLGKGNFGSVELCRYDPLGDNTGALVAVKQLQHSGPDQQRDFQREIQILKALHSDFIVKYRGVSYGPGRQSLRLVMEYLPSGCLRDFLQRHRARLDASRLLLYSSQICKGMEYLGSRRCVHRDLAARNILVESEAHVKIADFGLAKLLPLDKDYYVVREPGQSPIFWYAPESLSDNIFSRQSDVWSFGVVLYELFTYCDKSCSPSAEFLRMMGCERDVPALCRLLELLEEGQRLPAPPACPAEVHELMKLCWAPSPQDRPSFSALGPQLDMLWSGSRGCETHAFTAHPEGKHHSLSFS
How it was run: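 TR-FRET (LANCE) read: 1 h room-temperature reaction, EDTA quench, Eu-anti-phosphotyrosine antibody, emission 665 nm after 340 nm excitation. Added solutions held 12 ng/mL JAK3, 300 nM ULight-JAK1 substrate and 15 μM ATP (pH 7.5 HEPES). Activity expressed against no-enzyme wells defined as full inhibition.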

JAK1 = biological target: T3, JAK1 (Homo sapiens, UniProt P23458); experiment: JAK1 enzyme inhibition test (LANCE method); conditions: 1 μM test compound; read-out: JAK1 enzyme inhibitory activity (%, 1 μM)
T3 construct: purchased Invitrogen
How it was run: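 Inhibition expressed against no-enzyme wells (100% inhibition), from time-resolved fluorescence at 665 nm after Eu-anti-phosphotyrosine antibody/EDTA detection. Kinase reaction ran 1 h at room temperature, pH 7.5 HEPES buffer, ULight-JAK1 substrate and ATP diluted to 300 nM and 150 μM before addition.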

TYK2 = biological target: T4, TYK2 (Homo sapiens, UniProt P29597); experiment: TYK2 enzyme inhibition test (LANCE method); conditions: 1 μM test compound; read-out: TYK2 enzyme inhibitory activity (%, 1 μM)
T4 construct: purchased Invitrogen
How it was run: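 TR-FRET (LANCE) readout: after 1 h room-temperature kinase reaction, EDTA plus 4 nM Eu-labelled anti-phosphotyrosine antibody added, signal at 665 nm (340 nm excitation). Reaction combined TYK2, ULight-JAK1 substrate and ATP, prepared at 375 ng/mL, 300 nM and 30 μM before addition, in pH 7.5 HEPES/MgCl2 buffer; enzyme-free wells define full inhibition.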

T3 sequence (P23458 whole entry): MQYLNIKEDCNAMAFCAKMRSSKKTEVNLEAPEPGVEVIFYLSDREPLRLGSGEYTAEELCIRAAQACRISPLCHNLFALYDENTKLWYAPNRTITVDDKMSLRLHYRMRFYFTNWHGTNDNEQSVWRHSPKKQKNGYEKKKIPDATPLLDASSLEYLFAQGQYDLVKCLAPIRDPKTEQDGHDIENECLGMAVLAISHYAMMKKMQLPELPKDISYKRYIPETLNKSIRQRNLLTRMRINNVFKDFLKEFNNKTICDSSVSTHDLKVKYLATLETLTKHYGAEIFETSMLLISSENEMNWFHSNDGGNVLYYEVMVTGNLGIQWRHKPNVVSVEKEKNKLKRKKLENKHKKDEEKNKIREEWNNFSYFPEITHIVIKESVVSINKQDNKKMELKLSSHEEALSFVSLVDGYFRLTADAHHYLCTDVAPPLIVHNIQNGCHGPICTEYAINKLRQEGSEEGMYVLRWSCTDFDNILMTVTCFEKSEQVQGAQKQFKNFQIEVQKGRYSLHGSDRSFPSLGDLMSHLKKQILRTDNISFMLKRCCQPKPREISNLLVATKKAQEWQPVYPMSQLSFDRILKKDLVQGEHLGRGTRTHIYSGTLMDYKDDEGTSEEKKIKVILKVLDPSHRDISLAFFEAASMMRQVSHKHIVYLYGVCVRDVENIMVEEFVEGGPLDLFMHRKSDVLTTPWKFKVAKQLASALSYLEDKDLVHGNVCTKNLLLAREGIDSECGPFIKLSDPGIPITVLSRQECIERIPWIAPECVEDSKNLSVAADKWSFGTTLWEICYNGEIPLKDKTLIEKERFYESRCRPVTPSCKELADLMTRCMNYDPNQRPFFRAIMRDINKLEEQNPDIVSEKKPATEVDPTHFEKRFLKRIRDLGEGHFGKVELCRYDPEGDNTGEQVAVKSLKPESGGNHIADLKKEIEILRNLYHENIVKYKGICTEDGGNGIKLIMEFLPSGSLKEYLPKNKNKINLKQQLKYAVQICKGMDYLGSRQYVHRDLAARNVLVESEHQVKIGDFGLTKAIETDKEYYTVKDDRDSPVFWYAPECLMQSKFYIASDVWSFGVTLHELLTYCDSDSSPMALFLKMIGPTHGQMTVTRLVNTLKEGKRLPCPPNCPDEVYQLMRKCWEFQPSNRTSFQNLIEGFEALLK
T1 sequence (O60674 whole entry): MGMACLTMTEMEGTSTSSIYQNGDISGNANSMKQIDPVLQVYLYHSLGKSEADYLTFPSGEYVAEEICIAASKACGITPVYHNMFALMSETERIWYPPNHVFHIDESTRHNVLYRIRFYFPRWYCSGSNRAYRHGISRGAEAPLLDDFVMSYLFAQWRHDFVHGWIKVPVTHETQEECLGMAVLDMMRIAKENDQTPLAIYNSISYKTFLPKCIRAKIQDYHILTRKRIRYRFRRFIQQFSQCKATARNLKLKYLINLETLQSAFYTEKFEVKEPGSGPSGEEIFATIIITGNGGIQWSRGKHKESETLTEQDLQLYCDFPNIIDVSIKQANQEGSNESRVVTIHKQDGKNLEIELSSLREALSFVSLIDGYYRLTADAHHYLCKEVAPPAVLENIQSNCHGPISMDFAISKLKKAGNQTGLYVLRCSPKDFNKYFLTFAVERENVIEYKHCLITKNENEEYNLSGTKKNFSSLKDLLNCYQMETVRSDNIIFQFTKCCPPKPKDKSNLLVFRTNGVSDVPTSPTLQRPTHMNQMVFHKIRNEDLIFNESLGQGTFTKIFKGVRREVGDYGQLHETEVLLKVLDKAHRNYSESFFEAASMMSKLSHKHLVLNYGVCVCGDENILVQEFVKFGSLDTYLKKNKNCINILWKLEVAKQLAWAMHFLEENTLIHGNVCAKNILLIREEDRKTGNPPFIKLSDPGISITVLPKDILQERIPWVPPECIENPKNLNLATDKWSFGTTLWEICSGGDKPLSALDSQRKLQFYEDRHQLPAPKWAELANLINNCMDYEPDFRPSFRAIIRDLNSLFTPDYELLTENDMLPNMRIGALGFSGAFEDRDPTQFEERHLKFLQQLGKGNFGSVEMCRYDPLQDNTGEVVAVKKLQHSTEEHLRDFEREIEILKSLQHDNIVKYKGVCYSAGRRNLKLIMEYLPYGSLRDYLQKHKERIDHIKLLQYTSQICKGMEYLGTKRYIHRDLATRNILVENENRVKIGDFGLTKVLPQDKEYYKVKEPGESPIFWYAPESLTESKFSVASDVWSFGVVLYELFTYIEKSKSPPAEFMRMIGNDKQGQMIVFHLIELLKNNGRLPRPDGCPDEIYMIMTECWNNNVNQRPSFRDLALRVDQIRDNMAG
T4 sequence (P29597 whole entry): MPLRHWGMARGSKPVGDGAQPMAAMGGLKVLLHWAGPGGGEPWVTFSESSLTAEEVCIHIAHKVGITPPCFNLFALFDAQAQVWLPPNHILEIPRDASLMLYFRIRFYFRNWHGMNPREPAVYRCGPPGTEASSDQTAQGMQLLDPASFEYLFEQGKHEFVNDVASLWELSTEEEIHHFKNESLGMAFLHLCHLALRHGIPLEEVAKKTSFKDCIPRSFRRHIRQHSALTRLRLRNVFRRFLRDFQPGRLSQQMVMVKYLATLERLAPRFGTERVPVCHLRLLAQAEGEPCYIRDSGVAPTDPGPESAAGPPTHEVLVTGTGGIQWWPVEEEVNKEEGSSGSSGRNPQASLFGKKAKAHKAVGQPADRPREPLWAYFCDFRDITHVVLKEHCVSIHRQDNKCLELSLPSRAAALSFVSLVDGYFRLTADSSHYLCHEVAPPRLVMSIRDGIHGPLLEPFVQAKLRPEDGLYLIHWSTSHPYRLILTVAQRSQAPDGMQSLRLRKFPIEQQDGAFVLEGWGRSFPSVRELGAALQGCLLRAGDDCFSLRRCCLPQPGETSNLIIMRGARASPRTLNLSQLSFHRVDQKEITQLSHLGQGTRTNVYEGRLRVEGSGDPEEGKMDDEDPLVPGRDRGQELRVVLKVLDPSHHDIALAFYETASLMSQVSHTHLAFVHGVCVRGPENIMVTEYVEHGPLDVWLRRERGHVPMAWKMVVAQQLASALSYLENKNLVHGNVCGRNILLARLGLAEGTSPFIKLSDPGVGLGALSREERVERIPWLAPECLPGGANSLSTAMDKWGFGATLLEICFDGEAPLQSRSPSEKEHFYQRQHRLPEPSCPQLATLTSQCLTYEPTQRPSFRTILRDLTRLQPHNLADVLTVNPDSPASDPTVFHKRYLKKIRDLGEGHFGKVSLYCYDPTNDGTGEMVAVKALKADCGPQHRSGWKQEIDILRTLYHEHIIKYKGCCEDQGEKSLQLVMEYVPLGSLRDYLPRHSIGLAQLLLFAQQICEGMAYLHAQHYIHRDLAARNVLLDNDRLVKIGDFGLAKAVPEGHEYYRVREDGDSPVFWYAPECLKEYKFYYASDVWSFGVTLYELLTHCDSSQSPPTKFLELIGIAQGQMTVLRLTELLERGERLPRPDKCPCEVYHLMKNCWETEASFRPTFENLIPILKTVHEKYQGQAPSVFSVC

| Compound | inhibition at 1 µM (JAK2) [%] | inhibition at 1 µM (JAK3) [%] | inhibition at 1 µM (JAK1) [%] | inhibition at 1 µM (TYK2) [%] |
| --- | --- | --- | --- | --- |
| CC(C)[C@H](C)n1cc(-c2cc(C3CC3)n(C)n2)c2[nH]nc(N)c2c1=O [Example 43, 3-amino-7-(5-cyclopropyl-1-methyl-1H-pyrazol-3-yl)-5-((2S)-3-methylbutan-2-yl)-1,5-dihydro-4H-pyrazolo[4,3-c]pyridin-4-one] | 97 | 99 | 97 | 100 |
| CC(C)[C@H](C)n1cc(-c2cc(CN3CCCC3)n(C)n2)c2[nH]nc(N)c2c1=O [Example 44, 3-amino-5-((2S)-3-methylbutan-2-yl)-7-(1-methyl-5-(pyrrolidin-1-ylmethyl)-1H-pyrazol-3-yl)-1,5-dihydro-4H-pyrazolo[4,3-c]pyridin-4-one] | 96 | 99 | 90 | 101 |
| CC(C)[C@H](C)n1cc(-c2cc(C(=O)N3CCS(=O)(=O)CC3)n(C)n2)c2[nH]nc(N)c2c1=O [Example 45, 3-amino-7-(5-((1,1-dioxidothiomorpholin-4-yl)carbonyl)-1-methyl-1H-pyrazol-3-yl)-5-((2S)-3-methylbutan-2-yl)-1,5-dihydro-4H-pyrazolo[4,3-c]pyridin-4-one] | 99 | 99 | 98 | 100 |
| CC(C)[C@H](C)n1cc(-c2cc(CN3CCS(=O)(=O)CC3)n(C)n2)c2[nH]nc(N)c2c1=O [Example 47, 3-amino-7-(5-((1,1-dioxidothiomorpholin-4-yl)methyl)-1-methyl-1H-pyrazol-3-yl)-5-((2S)-3-methylbutan-2-yl)-1,5-dihydro-4H-pyrazolo[4,3-c]pyridin-4-one] | 98 | 100 | 93 | 99 |
| CC(C)[C@H](C)n1cc(-c2cc(N3CCCCC3=O)n(C)n2)c2[nH]nc(N)c2c1=O [Example 48, 3-amino-5-((2S)-3-methylbutan-2-yl)-7-(1-methyl-5-(2-oxopiperidin-1-yl)-1H-pyrazol-3-yl)-1,5-dihydro-4H-pyrazolo[4,3-c]pyridin-4-one] | 97 | 100 | 94 | 99 |
| CC(C)[C@H](C)n1cc(-c2cc(N3CCOCC3=O)n(C)n2)c2[nH]nc(N)c2c1=O [Example 49, 3-amino-5-((2S)-3-methylbutan-2-yl)-7-(1-methyl-5-(3-oxomorpholin-4-yl)-1H-pyrazol-3-yl)-1,5-dihydro-4H-pyrazolo[4,3-c]pyridin-4-one] | 97 | 100 | 96 | 99 |
| CC(C)[C@H](C)n1cc(-c2cc(CN3CCCC3=O)n(C)n2)c2[nH]nc(N)c2c1=O [Example 52, 3-amino-5-((2S)-3-methylbutan-2-yl)-7-(1-methyl-5-((2-oxopyrrolidin-1-yl)methyl)-1H-pyrazol-3-yl)-1,5-dihydro-4H-pyrazolo[4,3-c]pyridin-4-one] | 99 | 99 | 96 | 100 |
| CC(C)[C@H](C)n1cc(-c2cc(C(=O)N(C)C3CCOCC3)n(C)n2)c2[nH]nc(N)c2c1=O [Example 53, 3-(3-amino-5-((2S)-3-methylbutan-2-yl)-4-oxo-4,5-dihydro-1H-pyrazolo[4,3-c]pyridin-7-yl)-N,1-dimethyl-N-(tetrahydro-2H-pyran-4-yl)-1H-pyrazole-5-carboxamide] | 96 | 99 | 95 | 98 |
| CC(C)[C@H](C)n1cc(-c2cc(N3CCOC3=O)n(C)n2)c2[nH]nc(N)c2c1=O [Example 54, 3-amino-5-((2S)-3-methylbutan-2-yl)-7-(1-methyl-5-(2-oxo-1,3-oxazolidin-3-yl)-1H-pyrazol-3-yl)-1,5-dihydro-4H-pyrazolo[4,3-c]pyridin-4-one] | 98 | 99 | 98 | 98 |
| CC(C)[C@H](C)n1cc(-c2cc(N3CCCC3=O)n(C)n2)c2[nH]nc(N)c2c1=O [Example 55, 3-amino-5-((2S)-3-methylbutan-2-yl)-7-(1-methyl-5-(2-oxopyrrolidin-1-yl)-1H-pyrazol-3-yl)-1,5-dihydro-4H-pyrazolo[4,3-c]pyridin-4-one] | 98 | 99 | 98 | 99 |

The next lines start with the values.

| inhibition at 1 µM (JAK2) [%] | inhibition at 1 µM (JAK3) [%] | inhibition at 1 µM (JAK1) [%] | inhibition at 1 µM (TYK2) [%] | Compound |
| --- | --- | --- | --- | --- |
| 96 | 99 | 96 | 98 | CC(C)[C@H](C)n1cc(-c2cc(C(F)(F)F)n(C)n2)c2[nH]nc(N)c2c1=O [Example 42, 3-amino-5-((2S)-3-methylbutan-2-yl)-7-(1-methyl-5-(trifluoromethyl)-1H-pyrazol-3-yl)-1,5-dihydro-4H-pyrazolo[4,3-c]pyridin-4-one] |
| 98 | 99 | 95 | 99 | COCCN(C)C(=O)c1cc(-c2cn([C@@H](C)C(C)C)c(=O)c3c(N)n[nH]c23)nn1C [Example 46, 3-(3-amino-5-((2S)-3-methylbutan-2-yl)-4-oxo-4,5-dihydro-1H-pyrazolo[4,3-c]pyridin-7-yl)-N-(2-methoxyethyl)-N,1-dimethyl-1H-pyrazole-5-carboxamide] |
| 99 | 100 | 96 | 99 | CC(C)[C@H](C)n1cc(-c2cc(C(=O)N(C)C3CCCC3)n(C)n2)c2[nH]nc(N)c2c1=O [Example 50, 3-(3-amino-5-((2S)-3-methylbutan-2-yl)-4-oxo-4,5-dihydro-1H-pyrazolo[4,3-c]pyridin-7-yl)-N-cyclopentyl-N,1-dimethyl-1H-pyrazole-5-carboxamide] |
| 97 | 97 | 97 | 99 | CC(=O)NCC(C)(C)c1cc(-c2cn([C@@H](C)C(C)C)c(=O)c3c(N)n[nH]c23)nn1C [Example 51, N-(2-(3-(3-amino-5-((2S)-3-methylbutan-2-yl)-4-oxo-4,5-dihydro-1H-pyrazolo[4,3-c]pyridin-7-yl)-1-methyl-1H-pyrazol-5-yl)-2-methylpropyl)acetamide] |
| 94 | 94 | 70 | 98 | CC(C)[C@H](C)n1cc(-c2cc(C(C)(C)C(=O)N(C)C)n(C)n2)c2[nH]nc(N)c2c1=O [Example 56, 2-(3-(3-amino-5-((2S)-3-methylbutan-2-yl)-4-oxo-4,5-dihydro-1H-pyrazolo[4,3-c]pyridin-7-yl)-1-methyl-1H-pyrazol-5-yl)-N,N,2-trimethylpropanamide] |
